Patent US5385932A, “HMG-COA reductase inhibitor metabolites” (Merck & Co., Inc., priority 1992, dated 1995)
Each block holds one compound with its values, some of them ahead of it.

Key:
[1] = incubation of 14C-labelled compound with rat liver microsomes, HPLC analysis of the label; type: in vitro ADME; conditions: rat liver microsomes with NADPH and MgCl2, pH 7.4, 37°
Procedure: Rat liver tissue (55.6 g) was homogenized in 0.05M Tris -1.15% KCl buffer at pH 7.5 (100 ml). The homogenates were centrifuged at 10,000 RPM for 20 '. The supernatants were filtered through glass wool and then centrifuged as 100,000 g for 90'. After the supernatant was discarded the pellet was suspended in 10 mM EDTA -1.15% KCl (100 ml) and recentrifuged at 100,000 g for 90 minutes. The supernatant was discarded and the pellet was resuspended in 0.25M sucrose (15 ml). Microsomes were stored at -80° under N2. Protein concentration (as determined by Biuret reaction) was 40 mg/ml of final suspension.
[^14 C] 6(R)-[2-[8(S)-(2,2-dimethylbutyryloxy)-2(S)-methyl-5(R)-hydroxy-6(S)-methyl-1,2,3,4, 4a(R),5,6,7,8,Sa(R)-decahydronaphthyl-1(S)]ethyl]-4(R)-hydroxy-3,4,5,6,-tetrahydro-2H-pyran-2-one (compound A)(40 μg) in 20 λ of DMSO was placed in a tube with rat liver microsomes (1 mg in 100 μl of broth) Mg Cl2 (30 μl of a 0.1M solution), NADPH (50 μl of a 0.01M solution) and phosphate buffer (100 λ of a.1M solution, pH 7.4).
Twenty five such tubes were incubated at 37° in a water bath, for 30 minutes. Acetone (1 ml) was added to each tube, followed by ethyl acetate (5 ml). The ethyl acetate was evaporated and the residue was reconstituted in methanol and fractionated by HPLC. […]

[2] = stability of the free dihydroxy acid on standing; type: physicochemical; conditions: on standing at room temperature; acid form can be maintained by increasing the pH above 7.0
Procedure: The sodium salt of the compound II from Example 4 is dissolved in 2 ml of ethanol-water (1:1; v:v) and added to 10 ml of 1N hydrochloric acid from which the dihydroxy acid is extracted with ethyl acetate. The organic extract is washed once with water, dried (Na2 SO4), and evaporated in vacuo with a bath temperature not exceeding 30° C. […] The dihydroxy acid form can be maintained by increasing the pH above 7.0.

[3] = target: T1, HMG--CoA reductase (Rattus norvegicus, UniProt P51639); test: intrinsic HMG-CoA reductase inhibition, in vitro protocol after alkaline hydrolysis of the lactone ring; type: biochemical; conditions: relative inhibitory potency from IC50 values; lactone ring opened by alkaline hydrolysis; lovastatin (hydroxy acid form) assigned 100
T1 construct: from tissue
T1 sequence (P51639 1-887): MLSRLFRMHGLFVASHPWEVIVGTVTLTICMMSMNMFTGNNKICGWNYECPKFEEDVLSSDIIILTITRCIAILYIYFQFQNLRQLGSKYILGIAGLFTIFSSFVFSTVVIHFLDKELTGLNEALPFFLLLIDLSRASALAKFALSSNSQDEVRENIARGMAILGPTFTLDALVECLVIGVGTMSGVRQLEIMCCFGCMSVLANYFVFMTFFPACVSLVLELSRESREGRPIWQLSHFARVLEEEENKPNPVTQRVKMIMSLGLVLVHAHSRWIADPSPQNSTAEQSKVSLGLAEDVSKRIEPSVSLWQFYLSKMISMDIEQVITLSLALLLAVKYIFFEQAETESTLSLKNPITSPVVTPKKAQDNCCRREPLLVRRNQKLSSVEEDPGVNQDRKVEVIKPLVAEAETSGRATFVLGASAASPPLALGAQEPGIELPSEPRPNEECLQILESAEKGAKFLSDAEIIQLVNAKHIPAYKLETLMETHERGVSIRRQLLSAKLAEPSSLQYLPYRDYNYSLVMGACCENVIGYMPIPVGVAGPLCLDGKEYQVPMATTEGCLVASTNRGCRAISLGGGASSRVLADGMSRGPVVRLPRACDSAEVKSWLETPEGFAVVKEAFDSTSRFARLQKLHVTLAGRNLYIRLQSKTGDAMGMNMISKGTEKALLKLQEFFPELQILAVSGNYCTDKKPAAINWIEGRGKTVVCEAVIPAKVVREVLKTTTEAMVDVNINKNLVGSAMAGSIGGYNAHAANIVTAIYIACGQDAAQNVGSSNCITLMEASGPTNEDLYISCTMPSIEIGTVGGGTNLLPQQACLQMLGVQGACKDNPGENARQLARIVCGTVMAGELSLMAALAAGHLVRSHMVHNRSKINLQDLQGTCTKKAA
Procedure: After alkaline hydrolysis of the lactone ring the intrinsic HMG--CoA reductase inhibition activity was measured in an vitro protocol based on a method published in Proc. Natl. Acad. Sci. U.S.A. 77, 3957-3961 (1980).
The IC50 value of the test compound was compared with that of its parent determined simultaneously. For estimation of relative inhibitory potencies, lovastatin (in the form of its hydroxy acid) was assigned a value of 100.

remaining at 1 h ([1]; 60 minutes, methyl-t.butyl ether extract, read-out: label in the extract that was unchanged starting material): 66%
Structure (SMILES): CCC(C)(C)C(=O)O[C@H]1C[C@@H](C)C[C@@H]2CC[C@H](C)[C@H](CC[C@@H]3C[C@@H](O)CC(=O)O3)[C@H]21 [compound B, 6(R)-[2-[8(S)-(2,2-dimethylbutyryloxy)-2(S),6(R)-dimethyl-1,2,3,4,4a(R),5,6,7,8, 8a(R)-decahydronaphthyl-1(S)]ethyl]-4(R)-hydroxy-3,4,5,6-tetrahydro-2H-pyran-2-one]

remaining at 0.5 h ([1]; 30 minutes, ethyl acetate extract, read-out: label representing unchanged starting material): 52%
Structure (SMILES): CCC(C)(C)C(=O)O[C@H]1C[C@@H](C)[C@@H](O)[C@@H]2CC[C@H](C)[C@H](CC[C@@H]3C[C@@H](O)CC(=O)O3)[C@H]21 [compound A, 6(R)-[2-[8(S)-(2,2-dimethylbutyryloxy)-2(S)-methyl-5(R)-hydroxy-6(S)-methyl-1,2,3,4, 4a(R),5,6,7,8,Sa(R)-decahydronaphthyl-1(S)]ethyl]-4(R)-hydroxy-3,4,5,6,-tetrahydro-2H-pyran-2-one]

Structure (SMILES): CCC(C)(C)C(=O)O[C@H]1C[C@](C)(O)[C@@H](O)[C@@H]2CC[C@H](C)[C@H](CC[C@@H](O)C[C@@H](O)CC(=O)O)[C@H]21 [Example 10]
stability of dihydroxy acid form (reversion to lactone) [2]: slowly reverts to the corresponding parent lactone

Potency (Relative to Lovastatin = 100) [3]: 40
Structure (SMILES): CCC(C)(C)C(=O)O[C@H]1C[C@](C)(O)[C@@H](O)[C@@H]2CC[C@H](C)[C@H](CC[C@@H]3C[C@@H](O)CC(=O)O3)[C@H]21 [6(R)-[2-[8(S)-(2,2-dimethylbutyryloxy)-2(S)-methyl-5(S),6(S)-dihydroxy-6(S)-methyl-1,2,3,4, 4a (R),5,6,7,8,8a (R)-decahydronaphthyl-1(S)]ethyl]-4(R)-hydroxy-3,4,5,6-tetrahydro-2H-pyran-2-one]

Potency (Relative to Lovastatin = 100) [3]: 2
Structure (SMILES): CCC(C)(C)C(=O)O[C@H]1C[C@](C)(O)C[C@@H]2CC[C@H](C)[C@H](CC[C@@H]3C[C@@H](O)CC(=O)O3)[C@H]21 [6(R)-[2-[8(S)-(2,2-dimethylbutyryloxy)-2(S),6(R)-dimethyl-6(R)-hydroxy-1,2,3,4,4a (R),5,6,7,8,8a (R)-decahydronaphthyl-1(S)]ethyl]-4(R)-hydroxy-3,4,5,6-tetrahydro-2H-pyran-2-one]
